Measured values from ChEMBL document CHEMBL1201862, “PubChem BioAssay data set” (2004).
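Exposure lasted 48 hours, with cells grown in 96-well plates and compounds tested at five concentrations. Here, GI50 denotes the concentration required for 50% inhibition of growth.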 Active and inactive are the calls of the source. Cut-off read from the data, not from the text of the source: active = GI50 up to about 1.1 µM and inactive = higher.

Legend:
Test in all cases: DTP human tumour cell line panel, 48 h
[1] = test system: OVCAR-8
[2] = test system: HCT-116
[3] = test system: 786-0
[4] = test system: BT-549
[5] = test system: CAKI-1
[6] = test system: M14
[7] = test system: SNB-19
[8] = test system: UO-31
[9] = test system: MCF7
[10] = test system: UACC-62
[11] = test system: NCI-H226
[12] = test system: NCI/ADR-RES
[13] = test system: RXF 393
[14] = test system: MDA-MB-231
[15] = test system: PC-3
[16] = test system: SF-295
[17] = test system: HL-60
[18] = test system: NCI-H23
[19] = test system: SK-MEL-2
[20] = test system: SN12C
[21] = test system: K562
[22] = test system: A549
[23] = test system: SR
[24] = test system: A498
[25] = test system: MDA-MB-435
[26] = test system: KM12
[27] = test system: COLO 205
[28] = test system: DU-145
[29] = test system: MDA-N
[30] = test system: OVCAR-3
[31] = test system: U-251
[32] = test system: OVCAR-5
[33] = test system: CCRF-CEM
[34] = test system: HT-29
[35] = test system: ACHN
[36] = test system: SF-539
[37] = test system: HCC 2998
[38] = test system: LOX IMVI
[39] = test system: NCI-H460
[40] = test system: SW-620
[41] = test system: MOLT-4
[42] = test system: OVCAR-4
[43] = test system: RPMI-8226
[44] = test system: SK-OV-3
[45] = test system: T47D
[46] = test system: HOP-92
[47] = test system: Hs-578T
[48] = test system: HCT-15
[49] = test system: UACC-257
[50] = test system: SF-268
[51] = test system: SK-MEL-28
[52] = test system: Malme-3M
[53] = test system: TK-10
[54] = test system: SK-MEL-5
[55] = test system: IGROV-1
[56] = test system: HOP-62
[57] = test system: SNB-75
[58] = test system: EKVX

SMILES: NC(=S)N/N=C(/C(=O)Nc1nc2ccc([N+](=O)[O-])cc2s1)C1C(=O)NC(=S)NC1=O
- GI50 [1]: > 100 µM (inactive)
- GI50 [2]: > 100 µM (inactive)
- GI50 [3]: > 100 µM (inactive)
- GI50 [4]: 70.1 µM (inactive)
- GI50 [5]: 45.8 µM (inactive)
- GI50 [6]: > 100 µM (inactive)
- GI50 [7]: 76.6 µM (inactive)
- GI50 [8]: 63.8 µM (inactive)
- GI50 [9]: > 100 µM (inactive)
- GI50 [10]: > 100 µM (inactive)
- GI50 [11]: 33.2 µM (inactive)
- GI50 [12]: > 100 µM (inactive)
- GI50 [13]: 48.6 µM (inactive)
- GI50 [14]: > 100 µM (inactive)
- GI50 [15]: 63.1 µM (inactive)
- GI50 [16]: 42.2 µM (inactive)
- GI50 [17]: > 100 µM (inactive)
- GI50 [18]: > 100 µM (inactive)
- GI50 [19]: > 100 µM (inactive)
- GI50 [20]: > 100 µM (inactive)
- GI50 [21]: > 100 µM (inactive)
- GI50 [22]: > 100 µM (inactive)
- GI50 [23]: > 100 µM (inactive)
- GI50 [24]: 72.3 µM (inactive)
- GI50 [25]: > 100 µM (inactive)
- GI50 [26]: > 100 µM (inactive)
- GI50 [27]: > 100 µM (inactive)
- GI50 [28]: > 100 µM (inactive)
- GI50 [29]: > 100 µM (inactive)
- GI50 [30]: > 100 µM (inactive)
- GI50 [31]: > 100 µM (inactive)
- GI50 [32]: 55.3 µM (inactive)
- GI50 [33]: > 100 µM (inactive)
- GI50 [34]: > 100 µM (inactive)
- GI50 [35]: 59.4 µM (inactive)
- GI50 [36]: 49 µM (inactive)
- GI50 [37]: 56 µM (inactive)
- GI50 [38]: > 100 µM (inactive)
- GI50 [39]: 56.1 µM (inactive)
- GI50 [40]: > 100 µM (inactive)
- GI50 [41]: > 100 µM (inactive)
- GI50 [42]: 23.7 µM (inactive)
- GI50 [43]: > 100 µM (inactive)
- GI50 [44]: > 100 µM (inactive)
- GI50 [45]: 47.4 µM (inactive)
- GI50 [46]: 77.6 µM (inactive)
- GI50 [47]: 27.7 µM (inactive)
- GI50 [48]: 42.7 µM
- GI50 [49]: > 100 µM (inactive)
- GI50 [50]: 88.9 µM (inactive)
- GI50 [51]: > 100 µM (inactive)

SMILES: CC(C)NC(=O)OCCN=C1c2ccccc2CCc2ccccc21
- GI50 [1]: 27 µM (inactive)
- GI50 [2]: 21.9 µM (inactive)
- GI50 [52]: 15.5 µM (inactive)
- GI50 [3]: 43.6 µM (inactive)
- GI50 [4]: 13.3 µM (inactive)
- GI50 [5]: 24.7 µM (inactive)
- GI50 [6]: 20.3 µM (inactive)
- GI50 [7]: 20.9 µM (inactive)
- GI50 [8]: 23.1 µM (inactive)
- GI50 [9]: 22.6 µM (inactive)
- GI50 [10]: 16.1 µM (inactive)
- GI50 [53]: 26.1 µM (inactive)
- GI50 [11]: 25.6 µM (inactive)
- GI50 [12]: 30.3 µM (inactive)
- GI50 [13]: 39.7 µM (inactive)
- GI50 [14]: 25.2 µM (inactive)
- GI50 [15]: 20.5 µM (inactive)
- GI50 [16]: 14.7 µM (inactive)
- GI50 [17]: 19.2 µM (inactive)
- GI50 [18]: 54.3 µM (inactive)
- GI50 [19]: 16.4 µM (inactive)
- GI50 [20]: 18.8 µM (inactive)
- GI50 [21]: 21.5 µM (inactive)
- GI50 [22]: 22.8 µM (inactive)
- GI50 [23]: 18.1 µM (inactive)
- GI50 [25]: 30.6 µM (inactive)
- GI50 [26]: 37.2 µM (inactive)
- GI50 [27]: 19.1 µM (inactive)
- GI50 [54]: 13.9 µM (inactive)
- GI50 [28]: 25.5 µM (inactive)
- GI50 [29]: 18.7 µM (inactive)
- GI50 [30]: 25 µM (inactive)
- GI50 [31]: 23.8 µM (inactive)
- GI50 [32]: 29.4 µM (inactive)
- GI50 [55]: 35.1 µM (inactive)
- GI50 [33]: 19.6 µM (inactive)
- GI50 [34]: 21.4 µM (inactive)
- GI50 [35]: 27.2 µM (inactive)
- GI50 [36]: 22.3 µM (inactive)
- GI50 [56]: 21 µM (inactive)
- GI50 [37]: 18.4 µM (inactive)
- GI50 [38]: 26.6 µM (inactive)
- GI50 [39]: 28.2 µM (inactive)
- GI50 [40]: 28.3 µM (inactive)
- GI50 [57]: 24.3 µM (inactive)
- GI50 [41]: 14.8 µM (inactive)
- GI50 [42]: 12.2 µM (inactive)
- GI50 [43]: 18.2 µM (inactive)
- GI50 [44]: 24.8 µM (inactive)
- GI50 [45]: 21 µM (inactive)
- GI50 [46]: 24.5 µM (inactive)
- GI50 [47]: 24 µM (inactive)
- GI50 [48]: 24.7 µM
- GI50 [49]: 22.9 µM (inactive)
- GI50 [50]: 26.2 µM (inactive)
- GI50 [58]: 23.8 µM (inactive)
- GI50 [51]: 19.7 µM (inactive)
